Test results published in patent publication US20260183302A1, “PDK1 REGULATORY COMPOUND AND COMPOSITION CONTAINING THE SAME” (PROVIBIO CO., LTD., priority 2024, published 2026).

How the values were obtained:
[1] = tested on: Human Colorectal Carcinoma cell line, HCT-116; experiment: Relative cell viability, HCT-116 (CCK-8); format: cell-based; settings: 48 hours
Method: Human-derived breast cancer cell line MCF-7, human-derived lung cancer cell line A549, human-derived colorectal cancer cell line HCT-116, human pancreatic cancer cell line AsPC-1, glioblastoma cell line A172, and melanoma cell line Malme-3M were obtained from the Korean Cell Bank. gastric cancer cell line SNU-719, and bladder cancer cell line T24 were cultured in RPMI-1640 medium containing 10% FBS.
(§1) Following stabilization, the cells were harvested using Trypsin-EDTA treatment, centrifuged at 1,200 rpm for 3 minutes, the supernatant was removed, and the cells were resuspended in the same medium. They were then seeded into a 96-well plate (Costar 96-well cell culture plate, Corning) at 100 μL per well, and the conditions were adjusted as indicated in Table 5.
(§2) The cells were cultured in a 5% CO2 incubator at 37° C. for 24 hours, and after stabilization of the cells, each plate was washed with 200 μL of PBS per well and treated with 50 μL of culture medium per well.
(§3) After that, 10 μL of CCK-8 was added to each well, and the plate was incubated again at 37° C. in a 5% CO2 incubator for 2 hours.
(§4) In other words, when the survival rate of untreated cells (DMSO) is set at 100%, the relative cell survival rate in each group treated with the drug at different concentrations is indicated.

[2] = tested on: Human Osteosarcoma, Saos-2; experiment: Relative cell viability, Saos-2 (CCK-8); format: cell-based
Method: (§5) Human-derived head and neck cancer cell line Fadu and osteosarcoma cell line Saos-2 were cultured in MEM medium containing 10% FBS, 100 U/mL penicillin, and 100 μg/mL streptomycin.
as §1
The cells were cultured in a 5% CO2 incubator at 37° C. for 24 hours, and after stabilization of the cells, each plate was washed with 200 μL of PBS per well and treated with 50 μL of culture medium per well. […]
as §3, §4

PDK1 = biological target: T1, PDK1 (Homo sapiens, UniProt O15530); experiment: IC50 for inhibiting PDK1 kinase activity; format: biochemical
T1 construct: purchased Promega V9681
T1 sequence (O15530 1-556): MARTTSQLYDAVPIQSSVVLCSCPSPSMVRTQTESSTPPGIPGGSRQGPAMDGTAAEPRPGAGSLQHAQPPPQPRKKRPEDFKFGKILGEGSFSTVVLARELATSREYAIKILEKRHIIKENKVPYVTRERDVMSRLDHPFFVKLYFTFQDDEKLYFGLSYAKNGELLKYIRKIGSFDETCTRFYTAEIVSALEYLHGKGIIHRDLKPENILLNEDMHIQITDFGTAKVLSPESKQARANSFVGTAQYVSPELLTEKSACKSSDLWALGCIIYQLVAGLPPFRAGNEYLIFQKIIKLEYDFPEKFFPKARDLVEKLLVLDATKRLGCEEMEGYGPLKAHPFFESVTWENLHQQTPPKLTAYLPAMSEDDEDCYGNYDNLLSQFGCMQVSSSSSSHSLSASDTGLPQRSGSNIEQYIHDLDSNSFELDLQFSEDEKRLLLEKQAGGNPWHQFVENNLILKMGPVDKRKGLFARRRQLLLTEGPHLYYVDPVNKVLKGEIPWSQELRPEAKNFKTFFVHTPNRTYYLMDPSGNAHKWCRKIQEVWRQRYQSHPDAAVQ
Method: Additionally, enzyme kinetics analysis was performed to quantitatively analyze the effect of the compounds of the present invention on the enzymatic activity of PDK1 (3-Phosphoinositide-dependent protein kinase-1) and to confirm the inhibition pattern.
Prior to the analysis, the half-maximal inhibitory concentration (IC50) values of the compounds GO15F, GO86, and GO88 of the present invention for inhibiting PDK1 kinase activity were determined, and the results are shown in FIG. 4.

[3] = tested on: Human Head and Neck cancer, Fadu; experiment: Relative cell viability, Fadu (CCK-8); format: cell-based; settings: relative to untreated cells
Method: as §5, §1, §2, §3, §4

[4] = tested on: NHDF (Normal Human Dermal Fibroblast) cells; experiment: Anti-aging in doxorubicin/IGF-1 aged NHDF cells (SA-β-gal, Ki-67 FACS); format: cell-based; settings: Doxorubicin (100 ng/ml) and IGF-1 (100 ng/ml), GO15F 0.01, 1 μM, 7 days
Method: To confirm the anti-aging and rejuvenating effects of the compound GO15F of the present invention, a NHDF (Normal Human Dermal Fibroblast, Promocell) cell model was established by inducing aging with doxorubicin (Doxorubicin), and β-galactosidase activity and Ki-67 expression were analyzed in the cells. First, NHDF cells were seeded at 1×10^4 cells per well in a 12-well plate and stabilized for 24 hours. […] After pre-incubation, the medium was removed, and the cells were cultured for 7 days in medium containing Doxorubicin (100 ng/ml) and IGF-1 (100 ng/ml) with GO15F. During this process, the medium was replaced with fresh medium every 2 days. The cultured cells were washed with PBS, fixed with 1× fixation buffer for 15 minutes, washed again with PBS, and then 300 μL of 1× working SA-β-gal buffer was added to each well. The cells were incubated at 37° C. for 24 hours. After the reaction was terminated, the cells were washed with PBS, and the […] of β-gal-positive cells stained blue was observed and photographed using a light microscope. Additionally, to investigate the effect of the compound (GO15F) of the present invention on proliferation activity in aging-induced NHDF (Normal Human Dermal Fibroblast) cells, Ki-67 expression was measured via FACS analysis. First, NHDF cells were seeded at 1×10^4 cells per well in a 12-well plate and stabilized for 24 hours. […]

| Molecule | Relative cell viability (%) ([1]; HCT-116, 1 μM) | Relative cell viability (%) ([1]; HCT-116, 10 μM) | Relative cell viability (%) ([1]; HCT-116, 30 μM) | Relative cell viability (%) ([1]; HCT-116, 50 μM) | Relative cell viability (%) ([2]; Saos-2, 10 μM, 48 hours) | Relative cell viability (%) ([2]; Saos-2, 30 μM, 48 hours) | Relative cell viability (%) ([2]; Saos-2, 50 μM, 48 hours) | Relative cell viability (%) ([2]; Saos-2, 48 hours) | IC50 (PDK1) [nM] | Relative cell viability (%) ([3]; concentration 1 μM) | Relative cell viability (%) ([3]; concentration 10 μM) | Relative cell viability (%) ([3]; concentration 30 μM) | Relative cell viability (%) ([3]; concentration 50 μM) | β-galactosidase activity (β-gal-positive cells) [4] |
| --- | --- | --- | --- | --- | --- | --- | --- | --- | --- | --- | --- | --- | --- | --- |
| 12-[4-(2,2-dimethylmorpholin-4-yl)]dodecyl-N-(6-aminopurine-2-yl) carboxamide [Compound 11] | 21.36 | 24.91 | 24.78 | 25.26 | 24.98 | 16.00 | 36.73 | 36.73 | 11.3 | 2.08 | 9.68 | 8.51 | 4.78 | – |
| Nc1ncccc1C(=O)NCCCCCCCCCCCCF [Compound 57, 2-Amino-N-(12-fluoro-dodecyl)-nicotinamide] | – | – | – | – | – | – | – | – | – | – | – | – | – | number of β-gal-positive cells decreased |
